Results as given in US7271171B2, “Adenosine A3 receptor modulators” (King Pharmaceuticals Research and Development, Inc., priority 1998, dated 2007).

Assays:
[1] = molecular target: T1, adenosine A3 receptors in Jurkat cell membranes (Homo sapiens, UniProt P0DMS8); assay: Saturation binding of radioligand of Compound 108, Jurkat cell membranes
T1 construct: endogenous in cells; host or cells: Jurkat (human T-cell leukaemia)
T1 sequence (P0DMS8 1-318): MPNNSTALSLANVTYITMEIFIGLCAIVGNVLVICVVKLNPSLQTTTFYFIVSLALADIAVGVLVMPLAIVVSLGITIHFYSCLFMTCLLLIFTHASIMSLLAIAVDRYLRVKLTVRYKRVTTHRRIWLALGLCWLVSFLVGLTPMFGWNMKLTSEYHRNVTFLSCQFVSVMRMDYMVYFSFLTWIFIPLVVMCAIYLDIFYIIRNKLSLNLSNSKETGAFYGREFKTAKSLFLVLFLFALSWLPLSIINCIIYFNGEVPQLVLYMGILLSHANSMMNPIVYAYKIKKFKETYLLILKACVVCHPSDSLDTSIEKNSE

[2] = molecular target: T2, adenosine A3 receptors in HL60 membranes (Homo sapiens, UniProt P0DMS8); assay: Saturation binding of radioligand of Compound 108, HL60 membranes
T2 construct: endogenous in cells; host or cells: HL60 (promyelocytic human leukaemia)
T2 sequence (P0DMS8 1-318): T1 sequence (P0DMS8 1-318)

[3H]CC([3H])Cn1cc2c(nc(NC(=O)Nc3ccc(OC)cc3)n3nc(-c4ccco4)nc23)n1 (stereo not shown) [radioligand of Compound 108, 5-[[(4-methoxyphenyl)amino]carbonyl]amino-8-(1,2-ditritiopropyl)-2-(2-furyl)-pyrazolo[4,3-e]1,2,4-triazolo[1,5-c]pyrimidine]
Bmax value ([1]; Jurkat cell membranes, FIG. 4, n=3): 1.30±0.03 pmol/mg protein | A3 receptor density detected ([1]; Jurkat cells): approximately 1300 fmol/mg protein | Bmax value / A3 receptor density detected ([2]; FIG. 5): 626±42 fmol/mg protein | Bmax value / A3 receptor density detected ([2]; FIG. 5, listed as tritiated analogue of Compound 108): ~650 fmol/mg protein
